Structures are written as SMILES.

Experiment [1] is described as follows: Experimental treatment of rats with ischemic ACVA: endothelial dysfunction and nitrosating stress. Format: in vivo. The settings on record: 20 mg/kg once a day for 96 hours of ischemia. The text has this: This provides the basis of its use for treatment and prevention of ischemic brain lesions after thrombolysis, stenting, balloon angioplasty, atheroctomy and removal of aneurysms in the internal carotid and vertebral arteries system.

A short description of experiment [2]: Cerebral blood flow in the internal carotid artery system under ACVA model by ischemic and hemorrhagic types. The format is in vivo. To be noted: rats, intravenous, doses of 3, 30, 50 and 100 mg/kg.
Another experiment deals with neurospecific enolase. The experiment in a line: Experimental treatment of rats with ischemic ACVA: neuronal degradation marker activity. Format: in vivo. To be noted: 10 mg/kg once a day for 96 hours of ischemia. The text has this: This evidences about the appropriateness of the use of the pharmaceutical compositions for parenteral use comprising the active substance 1-adamantylethyloxy-3-morpholino-2-propanol or pharmaceutically acceptable salts thereof for treatment and prevention of ischemic brain lesions after thrombolysis, stenting, balloon angioplasty, atheroctomy and removal of aneurysms in the internal carotid and vertebral arteries system.

Experiment [3] relates to NMDA-receptor-ionofor complex of hippocampal pyramidal neurons. Briefly: Aspartate-activated currents in individual pyramidal hippocampal neurons. The format is cell-based, white Wistar WAG\GSto rats. The settings on record: individual pyramidal hippocampal neurons of 15-day aged rats.

`OC(COCCC12CC3CC(CC(C3)C1)C2)CN1CCOCC1` (stereo not drawn) [1-adamantylethyloxy-3-morpholino-2-propanol]: in experiment [1], the endothelial dysfunction manifestations result is reported as “promoted the decrease” and the nitrosating stress manifestations result is reported as “promoted the decrease”. Further, the “cerebral blood flow in the internal carotid artery system” value in experiment [2] is “stimulates the cerebral blood flow”. The “neuronal degradation marker activity (neurospecific enolase)” value in the experiment with neurospecific enolase is on record as “promoted the reduction”. In experiment [3], the NMDA-receptors blocking/unblocking entry is on record as “very fast” and the “modulation of aspartate-activated currents (action on NMDA-receptor-ionofor complex)” value is given as “exhibits properties of activator NMDA-receptor-ionofor complex”.

(Values after US9333207B2, “Pharmaceutical composition of 1-adamantylethyloxy-3-morpholino-2-propanol or pharmaceutically acceptable salts thereof for the treatment of cerebrovascular disease and neurodegenerative diseases of the central nervous system” (priority 2012, dated 2016).)
